Results as given in the supplement of paper PMC13380429.

Tests used:
Conditions in all cases: 72 h
U2OS [1] = test: drug sensitivity score (DSS) for viability; higher = more toxic; extreme values may be limits of the assay
Caco-2 [2] = test: as above
Calu-3 [3] = test: as above
HepG2 [4] = test: as above
Vero E6 [5] = test: as above
U2OS [6] = test: cell viability relative to DMSO; higher = less toxic
Caco-2 [7] = test: as above
Calu-3 [8] = test: as above
HepG2 [9] = test: as above
Vero E6 [10] = test: as above
U2OS [11] = test: relative viability EC50 (midpoint between 100% and the lowest measured viability); higher = less toxic
Caco-2 [12] = test: as above
Calu-3 [13] = test: as above
HepG2 [14] = test: as above
Vero E6 [15] = test: as above

Compound	drug sensitivity score (U2OS [1])	drug sensitivity score (Caco-2 [2])	drug sensitivity score (Calu-3 [3])	drug sensitivity score (HepG2 [4])	drug sensitivity score (Vero E6 [5])	cell viability (U2OS [6]; 1 nM) [%]	cell viability (U2OS [6]; 10 nM) [%]	cell viability (U2OS [6]; 100 nM) [%]	cell viability (U2OS [6]; 1000 nM) [%]	cell viability (U2OS [6]; 10000 nM) [%]	cell viability (Caco-2 [7]; 1 nM) [%]	cell viability (Caco-2 [7]; 10 nM) [%]	cell viability (Caco-2 [7]; 100 nM) [%]	cell viability (Caco-2 [7]; 1000 nM) [%]	cell viability (Caco-2 [7]; 10000 nM) [%]	cell viability (Calu-3 [8]; 1 nM) [%]	cell viability (Calu-3 [8]; 10 nM) [%]	cell viability (Calu-3 [8]; 100 nM) [%]	cell viability (Calu-3 [8]; 1000 nM) [%]	cell viability (Calu-3 [8]; 10000 nM) [%]	cell viability (HepG2 [9]; 1 nM) [%]	cell viability (HepG2 [9]; 10 nM) [%]	cell viability (HepG2 [9]; 100 nM) [%]	cell viability (HepG2 [9]; 1000 nM) [%]	cell viability (HepG2 [9]; 10000 nM) [%]	cell viability (Vero E6 [10]; 1 nM) [%]	cell viability (Vero E6 [10]; 10 nM) [%]	cell viability (Vero E6 [10]; 100 nM) [%]	cell viability (Vero E6 [10]; 1000 nM) [%]	cell viability (Vero E6 [10]; 10000 nM) [%]	relative viability EC50 (U2OS [11]) [µM]	relative viability EC50 (Caco-2 [12]) [µM]	relative viability EC50 (Calu-3 [13]) [µM]	relative viability EC50 (HepG2 [14]) [µM]	relative viability EC50 (Vero E6 [15]) [µM]
N=C1NC(=O)/C(=C/c2ccc(O)cc2)S1 [mirin]	0	0	0.1	0	0	95.3	101	97.5	99.6	97.9	95	97.8	101	97.6	96.2	89.9	105	94.8	93.4	87.8	98.3	91.1	95.2	98	96.8	99.2	96.2	96.5	93.3	104	> 10	> 10	> 10	> 10	> 10
O=C1c2c(O)ccc(O)c2C(=O)c2c(NCCNCCO)ccc(NCCNCCO)c21 [mitoxantrone]	14.6	10.7	14.6	21.6	13.9	95.8	102	88.7	30.6	0.7	93.3	96.5	86.2	53	22.3	104	98.4	65.1	46.7	28.9	93.1	82.4	53.2	21.8	1.7	98.8	96	66.5	51.4	13.6	0.514	0.565	0.15	0.11	0.35
CC1(C)CNc2cc(NC(=O)c3cccnc3NCc3ccncc3)ccc21 [motesanib]	0	0	0	0.1	0	103	96.7	97.9	98.9	96.8	94.6	95.5	96.8	92.1	93.2	111	99.6	110	110	108	95.9	94	97.4	93.5	84.9	97.3	102	94.9	94	96.9	> 10	> 10	> 10	> 10	> 10
CCCc1c2oc(C(=O)O)cc(=O)c2cc2c(=O)cc(C(=O)O)n(CC)c12 [nedocromil]	0	0	0	0	0	102	106	99.4	104	97.1	98.3	99.8	97.9	105	100	102	99.4	103	107	98.4	113	86.5	91.5	90.6	100	121	100	115	95.7	109	> 10	> 10	> 10	> 10	> 10
CC(=O)C(=Cc1cc(O)c(O)c([N+](=O)[O-])c1)C(C)=O [nitecapone]	0	0	0	0	0	98.8	102	96.6	103	95.6	94.7	92.1	99.9	95.7	96.4	97.5	93.7	105	109	110	103	94	96.5	98.4	93.7	109	107	105	98.7	105	> 10	> 10	> 10	> 10	> 10
CC1(C)CC[C@]2(C(=O)O)CC[C@]3(C)C(=CC[C@@H]4[C@@]5(C)CC[C@H](O)C(C)(C)[C@@H]5CC[C@]43C)[C@@H]2C1 [oleanolic-acid]	0	0	0	0	0	95.2	98.1	94.4	102	94.5	104	97.1	93	104	95.6	109	110	98.3	109	89.8	106	96.2	89.9	99.9	94.7	96.3	94.7	94.9	95.3	95.3	> 10	> 10	> 10	> 10	> 10
Cc1[nH]c(=O)c(C#N)cc1-c1ccc2nccn2c1 [olprinone]	0	0	0	0	0	105	102	101	99.9	102	98.7	99.6	91.2	92	94.8	107	112	93.2	104	98.3	93.2	102	103	104	104	98.5	106	94.2	102	96.7	> 10	> 10	> 10	> 10	> 10
